# According to US6451807B1, “Methods of treating sexual dysfunction in an individual suffering from a retinal disease, class 1 congestive heart failure, or myocardial infarction using a PDE5 inhibitor” (Lilly Icos, LLC., priority 1999, dated 2002):
# Assays:
# [1] = target: T1, PDE1c (Homo sapiens, UniProt Q14123); test: PDE1c enzyme inhibition, IC50 determination; type: biochemical; details: read-out: IC50 against PDE1c
# T1 construct: made in house; host or cells: Spodoptera frugiperda Sf9 cells
# T1 sequence (Q14123 whole entry, species assumed): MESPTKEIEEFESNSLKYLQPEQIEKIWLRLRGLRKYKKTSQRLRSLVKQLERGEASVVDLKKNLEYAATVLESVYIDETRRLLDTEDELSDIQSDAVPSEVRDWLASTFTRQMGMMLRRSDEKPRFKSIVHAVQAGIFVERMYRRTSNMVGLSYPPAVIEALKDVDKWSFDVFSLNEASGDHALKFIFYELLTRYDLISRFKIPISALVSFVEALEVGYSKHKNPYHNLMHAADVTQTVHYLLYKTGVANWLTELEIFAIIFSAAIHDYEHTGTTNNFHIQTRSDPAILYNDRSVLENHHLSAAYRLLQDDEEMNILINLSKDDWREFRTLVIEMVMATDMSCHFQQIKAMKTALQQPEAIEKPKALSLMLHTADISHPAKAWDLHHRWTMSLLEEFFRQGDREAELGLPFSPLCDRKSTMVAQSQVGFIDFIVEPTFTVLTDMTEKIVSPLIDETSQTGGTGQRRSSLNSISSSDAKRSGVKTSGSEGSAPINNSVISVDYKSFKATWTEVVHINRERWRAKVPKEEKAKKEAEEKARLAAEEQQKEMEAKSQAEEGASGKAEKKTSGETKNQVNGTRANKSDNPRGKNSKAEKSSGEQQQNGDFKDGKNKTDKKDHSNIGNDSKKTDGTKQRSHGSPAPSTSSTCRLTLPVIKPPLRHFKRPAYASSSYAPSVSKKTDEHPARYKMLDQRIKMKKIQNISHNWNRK
# Experimental: Cell pellets (5g) were thawed on ice with 20 ml of Lysis Buffer (50 mM MOPS pH 7.4, 10 μM ZnSO4, 0.1 mM CaCl2, 1 mM DTT, 2 mM benzamidine HCl, 5μg/ml each of pepstatin, leupeptin, and aprotenin). Cells were lysed by passage through a French pressure cell (SLM-Aminco) while temperatures were maintained below 10° C. The resultant cell homogenate was centrifuged at 36,000 rpm at 4° C. for 45 minutes in a Beckman ultracentrifuge using a Type TI45 rotor. The supernatant was discarded and the resultant pellet was resuspended with 40 ml of Solubilization Buffer (Lysis Buffer containing 1M NaCl, 0.1M MgCl2, 1 mM CaCl2, 20 μg/ml calmodulin, and 1% Sulfobetaine SB12 (Z3-12) by sonicating using a VibraCell tuner with a microtip for 3×30 seconds. This was performed in a crushed ice/salt mix for cooling. Following sonication, the mixture was slowly mixed for 30 minutes at 4° C. to finish solubilizing membrane bound proteins. This mixture was centrifuged in a Beckman ultracentrifuge using a type TI45 rotor at 36,000 rpm for 45 minutes. The supernatant was diluted with Lysis Buffer containing 10 μg/ml calpain inhibitor I and II. The precipitated protein was centrifuged for 20 minutes at 9,000 rpm in a Beckman JA-10 rotor. The recovered supernatant then was subjected to Mimetic Blue AP Agarose Chromatography. […]
# [2] = test system: male erectile dysfunction; test: Combined clinical studies, IIEF erectile function domain; type: in vivo, human
# [3] = test system: clinical study subjects; test: Combined clinical studies, treatment-emergent adverse events; type: in vivo, human
# Source text: However, it also was observed from the combined clinical studies that the percent of treatment-emergent adverse events increased with an increasing unit dose of the compound of structural formula (I), as illustrated in the following table.
# [4] = unit dose of about 1 to about 20 mg
compound,measurement,setting,value
"CN1CC(=O)N2[C@H](c3ccc4c(c3)OCO4)c3[nH]c4ccccc4c3C[C@@H]2C1=O [Compound 5, (6R-trans)-6-(1,3-benzodioxol-5-yl)-2,3,6,7,12,12a-hexahydro-2-methylpyrazino[1′,2′:1,6]pyrido[3,4-b]indole-1,4-dione]",IC50,[1],10 µM
same,treatment of male erectile dysfunction,[2]; combined results from clinical studies,effectively treats male erectile dysfunction
same,"IIEF erectile function domain (change from baseline), Mean ± SD",[2]; unit dose 2 mg,3.9 ± 6.1
same,"IIEF erectile function domain (change from baseline), Mean ± SD",[2]; unit dose 5 mg,6.6 ± 7.1
same,"IIEF erectile function domain (change from baseline), Mean ± SD",[2]; unit dose 10 mg,7.9 ± 6.7
same,"IIEF erectile function domain (change from baseline), Mean ± SD",[2]; unit dose 25 mg,9.4 ± 7.0
same,"IIEF erectile function domain (change from baseline), Mean ± SD",[2]; unit dose 50 mg,9.8 ± 5.5
same,"IIEF erectile function domain (change from baseline), Mean ± SD",[2]; unit dose 100 mg,8.4 ± 6.1
same,Treatment-Emergent Adverse Events (%): Back Pain,[3]; unit dose 2 mg,3%
same,Treatment-Emergent Adverse Events (%): Conjunctivitis,[3]; unit dose 2 mg,0%
same,Treatment-Emergent Adverse Events (%): Dyspepsia,[3]; unit dose 2 mg,3%
same,Treatment-Emergent Adverse Events (%): Eyelid Edema,[3]; unit dose 2 mg,0%
same,Treatment-Emergent Adverse Events (%): Flushing,[3]; unit dose 2 mg,0%
same,Treatment-Emergent Adverse Events (%): Headache,[3]; unit dose 2 mg,12%
same,Treatment-Emergent Adverse Events (%): Myalgia,[3]; unit dose 2 mg,0%
same,Treatment-Emergent Adverse Events (%): Rhinitis,[3]; unit dose 2 mg,7%
same,Treatment-Emergent Adverse Events (%): Vision Abnormalities,[3]; unit dose 2 mg,0%
same,Treatment-Emergent Adverse Events (%): Back Pain,[3]; unit dose 5 mg,3%
same,Treatment-Emergent Adverse Events (%): Conjunctivitis,[3]; unit dose 5 mg,1%
same,Treatment-Emergent Adverse Events (%): Dyspepsia,[3]; unit dose 5 mg,14%
same,Treatment-Emergent Adverse Events (%): Eyelid Edema,[3]; unit dose 5 mg,0%
same,Treatment-Emergent Adverse Events (%): Flushing,[3]; unit dose 5 mg,0%
same,Treatment-Emergent Adverse Events (%): Headache,[3]; unit dose 5 mg,10%
same,Treatment-Emergent Adverse Events (%): Myalgia,[3]; unit dose 5 mg,3%
same,Treatment-Emergent Adverse Events (%): Rhinitis,[3]; unit dose 5 mg,3%
same,Treatment-Emergent Adverse Events (%): Vision Abnormalities,[3]; unit dose 5 mg,0%
same,Treatment-Emergent Adverse Events (%): Back Pain,[3]; unit dose 10 mg,15%
same,Treatment-Emergent Adverse Events (%): Conjunctivitis,[3]; unit dose 10 mg,1%
same,Treatment-Emergent Adverse Events (%): Dyspepsia,[3]; unit dose 10 mg,13%
same,Treatment-Emergent Adverse Events (%): Eyelid Edema,[3]; unit dose 10 mg,1%
same,Treatment-Emergent Adverse Events (%): Flushing,[3]; unit dose 10 mg,<1%
same,Treatment-Emergent Adverse Events (%): Headache,[3]; unit dose 10 mg,23%
same,Treatment-Emergent Adverse Events (%): Myalgia,[3]; unit dose 10 mg,9%
same,Treatment-Emergent Adverse Events (%): Rhinitis,[3]; unit dose 10 mg,4%
same,Treatment-Emergent Adverse Events (%): Vision Abnormalities,[3]; unit dose 10 mg,0%
same,Treatment-Emergent Adverse Events (%): Back Pain,[3]; unit dose 25 mg,18%
same,Treatment-Emergent Adverse Events (%): Conjunctivitis,[3]; unit dose 25 mg,0%
same,Treatment-Emergent Adverse Events (%): Dyspepsia,[3]; unit dose 25 mg,19%
same,Treatment-Emergent Adverse Events (%): Eyelid Edema,[3]; unit dose 25 mg,1%
same,Treatment-Emergent Adverse Events (%): Flushing,[3]; unit dose 25 mg,0%
same,Treatment-Emergent Adverse Events (%): Headache,[3]; unit dose 25 mg,29%
same,Treatment-Emergent Adverse Events (%): Myalgia,[3]; unit dose 25 mg,16%
same,Treatment-Emergent Adverse Events (%): Rhinitis,[3]; unit dose 25 mg,4%
same,Treatment-Emergent Adverse Events (%): Vision Abnormalities,[3]; unit dose 25 mg,0%
same,Treatment-Emergent Adverse Events (%): Back Pain,[3]; unit dose 50 mg,24%
same,Treatment-Emergent Adverse Events (%): Conjunctivitis,[3]; unit dose 50 mg,2%
same,Treatment-Emergent Adverse Events (%): Dyspepsia,[3]; unit dose 50 mg,20%
same,Treatment-Emergent Adverse Events (%): Eyelid Edema,[3]; unit dose 50 mg,2%
same,Treatment-Emergent Adverse Events (%): Flushing,[3]; unit dose 50 mg,3%
same,Treatment-Emergent Adverse Events (%): Headache,[3]; unit dose 50 mg,34%
same,Treatment-Emergent Adverse Events (%): Myalgia,[3]; unit dose 50 mg,20%
same,Treatment-Emergent Adverse Events (%): Rhinitis,[3]; unit dose 50 mg,0%
same,Treatment-Emergent Adverse Events (%): Vision Abnormalities,[3]; unit dose 50 mg,0%
same,Treatment-Emergent Adverse Events (%): Back Pain,[3]; unit dose 100 mg,22%
same,Treatment-Emergent Adverse Events (%): Conjunctivitis,[3]; unit dose 100 mg,5%
same,Treatment-Emergent Adverse Events (%): Dyspepsia,[3]; unit dose 100 mg,25%
same,Treatment-Emergent Adverse Events (%): Eyelid Edema,[3]; unit dose 100 mg,3%
same,Treatment-Emergent Adverse Events (%): Flushing,[3]; unit dose 100 mg,7%
same,Treatment-Emergent Adverse Events (%): Headache,[3]; unit dose 100 mg,46%
same,Treatment-Emergent Adverse Events (%): Myalgia,[3]; unit dose 100 mg,29%
same,Treatment-Emergent Adverse Events (%): Rhinitis,[3]; unit dose 100 mg,2%
same,Treatment-Emergent Adverse Events (%): Vision Abnormalities,[3]; unit dose 100 mg,0%
same,flushing,[3]; [4],flushing was essentially eliminated
same,vision abnormalities,[3]; [4],no vision abnormalities were reported
